{"source": "paper PMC11436758", "about": "“Computer-aided drug design to generate a unique antibiotic family” (Nature Communications, 2024)", "key": {"[1]": {"system": "E. coli (D22)", "assay": "MIC, outer-membrane-permeable lpxC point mutant", "type": "cell-based", "conditions": "Escherichia coli", "description": "(§1) The outer membrane of Gram-negative bacteria is a robust permeability barrier that prevents many antibiotics from entering Gram-negative cells[46],[47]. The outer leaflet of this outer membrane is primarily composed of the unique lipid lipopolysaccharide (LPS). Strains of E. coli with point mutations in genes coding for LPS biosynthetic enzymes have been isolated that enable some antibiotics to effectively pass through the outer membrane enabling activity against these strains of E. coli[48]–[54]; one such strain is E. coli (D22) which contains a point mutation in the lpxC gene.\n(§2) The medium employed for the assay was Mueller Hinton II Broth (MHB II; Becton-Dickinson, Sparks, MD, USA). Agar plates used for the organisms were trypticase soy agar plus 5% sheep blood (BD; Sparks, MD, USA). MIC assay plates were prepared using the CLSI broth microdilution procedure. Automated liquid handlers (Multidrop 384, Biomek 2000 and Biomek FX) were used to conduct serial dilutions and liquid transfers. A standardized inoculum of each organism was prepared per CLSI methods. Suspensions were prepared to equal a 0.5 McFarland standard, followed by a 1:20 dilution in test media. […] The microplates were viewed from the bottom using a plate viewer and the MIC was read. The MIC was recorded as the lowest concentration of drug that inhibited visible growth of the organism. […]"}, "[2]": {"system": "HEK293 cells", "assay": "cells", "type": "cell-based", "conditions": "Homo sapiens, Hek293 cells, 24 hrs", "procedure": "(§3) Stock solutions of the test agents were prepared in DMSO (40 mg/mL) and stored at −20 °C until use. AlamarBlue HS™ cell viability reagent was acquired from Invitrogen (Cat # A50100, Carlsbad, CA). COS7 and HEK293 cells (obtained from ATCC) were cultured and tested at 37 °C in a 5% CO2/100% humidity environment in DMEM media supplemented with 10% fetal bovine serum. Cells were trypsinized, centrifuged, resuspended in cell media, counted on a hemacytometer, and diluted to an appropriate cell density to give the desired number of cells per 300 μl media. Cells were then loaded into 48-well cell culture plates (3548; Corning, Inc.); 300 μl/well at 60,000 cells per well. The cell density was determined in preliminary tests to give linear AlamarBlue HS™ readings over a 3.5 h period for HEK293 cells and 2 h period for COS7 cells after 2 days of growth; 2 wells per plate were loaded with 300 μl/well of cell-free media to provide background readings. Plates were cultured overnight, after which test agent solutions were prepared in media at the highest test concentration (100 ug/mL) and at five serial dilutions, each containing 0.25% DMSO and 0.125% Kolliphor® EL (Cat# 27963, Sigma Aldrich). The compounds concentrations were then loaded in separate columns via 300 μl/well. […] Normalized values representing the amount of AlamarBlue converted to its […] form were calculated for each well using background-corrected absorbances as described by the Alamar-Blue HS protocol information packet available from Invitrogen Technical Support. The fraction of control viability for each agent concentration with each cell line was then determined by the ratio of normalized values for the treated wells to the control wells. […] Values were determined by linear interpolation of fraction of control growth against concentration for the test agent concentrations."}, "[3]": {"assay": "in vitro", "type": "cell-based", "procedure": "as §3"}, "[4]": {"system": "COS7 cells", "assay": "cells", "type": "cell-based", "conditions": "for IC50: Chlorocebus aethiops, COS-7, COS7 cells, 24 hrs", "procedure": "as §3"}, "[5]": {"system": "Primary Skin Fibroblasts cells", "assay": "Cell culture toxicity, Alamar Blue HS fluorescence", "type": "cell-based", "conditions": "Suppl Fig 9, Primary Skin Fibroblasts cells"}, "[6]": {"assay": "Dermal pharmacokinetics, serum concentration after topical application", "type": "in vivo, Sprague Dawley rats", "procedure": "We determined that the maximum concentration present in serum was 1.02 μg/mL at 7.0 h after application with a time½ of 8.7 h. By 24 h the concentration of DNM0547 had decreased to 0.06 μg/mL and by 48 h was 0.03 μg/mL (Supplementary Fig. 8).\nRat PK. […]\nSupplementary Figure 8. Dermal PK of DNM0547. a, 2% DNM0547 was applied to shaved skin of Sprague Dawley rats and DNM0547 concentration in serum was determined over time (n=5). b, PK parameters for DNM0547 in serum. CV, coefficient variation was determined using Graphpad Prism.\n(1 picture or pasted object on this page, not shown here)"}, "[7]": {"system": "wild type (K12) E. coli", "assay": "MIC, wild type E. coli", "type": "cell-based", "conditions": "Escherichia coli", "description": "as §1, §2"}, "[8]": {"conditions": "read-out: IC50 (cell viability)"}, "[9]": {"conditions": "read-out: Log IC50 (cell viability) (converted)"}, "[10]": {"conditions": "2% on shaved skin, serum, mean, n=5"}}, "note": "“And” between values parts separate entries of the source, which are not always exact repeats. Identical values can stand only once. Like-named read-outs stand apart in the source and are kept apart here.", "data": [{"smiles": "CC(C)c1cc(Cl)ccc1-c1cc(-c2nnn[nH]2)c(-c2ccc(Cl)cc2C(C)C)s1", "note": "[DNM0547]", "values": [{"measurement": "MIC", "setting": "[1]", "value": 32, "unit": "µg/mL"}, {"measurement": "IC50", "setting": "[2]; [8]", "value": 41.5, "unit": "µg/mL"}, {"measurement": "IC50", "setting": "[2]; [9]", "value": 41.5, "unit": "µg/mL"}, {"measurement": "CC50 at 24 h", "setting": "[3]; African green monkey", "value": 21, "unit": "µg/mL"}, {"measurement": "CC50 at 24 h", "setting": "[3]; human", "value": 41, "unit": "µg/mL"}, {"measurement": "IC50", "setting": "[4]; [8]", "value": 21.2, "unit": "µg/mL"}, {"measurement": "IC50", "setting": "[4]; [9]", "value": 21.2, "unit": "µg/mL"}, {"measurement": "Fluorescence (FI)", "setting": "[4]; Suppl Fig 9, COS7 cells, Alamar Blue HS, Conc. 40000 ng/ml", "value": 261, "unit": "FI"}, {"measurement": "Fluorescence (FI)", "setting": "[5]; Conc. 2 ng/ml", "value": "921 FI and 814 FI and 995 FI"}, {"measurement": "Fluorescence (FI)", "setting": "[5]; Conc. 100 ng/ml", "value": "911 FI and 909 FI and 816 FI and 747 FI"}, {"measurement": "Fluorescence (FI)", "setting": "[5]; Conc. 2500 ng/ml", "value": "895 FI and 904 FI and 819 FI and 790 FI"}, {"measurement": "Fluorescence (FI)", "setting": "[5]; Conc. 5000 ng/ml", "value": "907 FI and 820 FI and 922 FI and 909 FI"}, {"measurement": "Fluorescence (FI)", "setting": "[5]; Conc. 20000 ng/ml", "value": "577 FI and 548 FI and 542 FI and 552 FI"}, {"measurement": "Fluorescence (FI)", "setting": "[5]; Conc. 40000 ng/ml", "value": "62 FI and 57 FI and 54 FI"}, {"measurement": "Fluorescence (FI)", "setting": "[5]; Conc. 100000 ng/ml", "value": "7 FI and 5 FI"}, {"measurement": "maximum concentration present in serum", "setting": "[6]; 2% applied topically", "value": 1.02, "unit": "µg/mL"}, {"measurement": "Concmax", "setting": "[6]; [10]", "value": 1020, "unit": "ng/mL"}, {"measurement": "Time1/2", "setting": "[6]; [10]", "value": "8.78 h and 8.7 h"}, {"measurement": "Timemax", "setting": "[6]; [10]", "value": "7.00 h and 7.0 h"}, {"measurement": "concentration at 6 h", "setting": "[6]; Sprague Dawley, rat, in vivo, 2 %, Suppl Fig 8, Hour 6, individual animals, read-out: DNM0547 conc", "value": 261, "unit": "ng/mL"}, {"measurement": "concentration at 12 h", "setting": "[6]; Sprague Dawley, rat, in vivo, 2 %, Suppl Fig 8, Hour 12, individual animals, read-out: DNM0547 conc", "value": 386, "unit": "ng/mL"}, {"measurement": "Tmax", "setting": "[6]; Sprague Dawley, rat, serum, topical or ocular, 2% applied topically, read-out: time of maximum serum concentration after application", "value": 7, "unit": "h"}, {"measurement": "concentration at 24 h", "setting": "[6]; Sprague Dawley, rat, serum, topical, 2 %, 2% applied topically, 24 h", "value": 60, "unit": "ng/mL"}, {"measurement": "concentration at 48 h", "setting": "[6]; Sprague Dawley, rat, serum, topical, 2 %, 2% applied topically, 48 h", "value": 30, "unit": "ng/mL"}, {"measurement": "DNM0547 conc", "setting": "[6]; Suppl Fig 8, Hour 3, individual animals", "value": "387 ng/mL and 281 ng/mL and 713 ng/mL and 1147 ng/mL and 236 ng/mL and 356 ng/mL"}, {"measurement": "DNM0547 conc", "setting": "[6]; Suppl Fig 8, Hour 6, individual animals", "value": "449 ng/mL and 1172 ng/mL and 560 ng/mL and 656 ng/mL and 1620 ng/mL"}, {"measurement": "DNM0547 conc", "setting": "[6]; Suppl Fig 8, Hour 9, individual animals", "value": "623 ng/mL and 414 ng/mL and 681 ng/mL and 201 ng/mL and 177 ng/mL and 767 ng/mL"}, {"measurement": "DNM0547 conc", "setting": "[6]; Suppl Fig 8, Hour 12, individual animals", "value": "477 ng/mL and 879 ng/mL and 564 ng/mL and 277 ng/mL and 158 ng/mL"}, {"measurement": "DNM0547 conc", "setting": "[6]; Suppl Fig 8, Hour 24, individual animals", "value": "65 ng/mL and 33 ng/mL and 92 ng/mL and 38 ng/mL and 45 ng/mL and 60 ng/mL"}, {"measurement": "DNM0547 conc", "setting": "[6]; Suppl Fig 8, Hour 48, individual animals", "value": "46 ng/mL and 21 ng/mL and 55 ng/mL and 17 ng/mL and 16 ng/mL and 14 ng/mL"}, {"measurement": "MIC", "setting": "[7]", "value": 256, "unit": "µg/mL"}]}]}
